Reference: patent US20160000796A1, “PHARMACEUTICAL COMPOSITION FOR USE IN PREVENTION OR TREATMENT OF CANCER” (priority 2013, published 2016)

Key:
[1] = tested on: ATL cell line, ED40515 (−); experiment: Chromosome double-strand break (Giemsa chromosome specimens), ED40515 (−); type: cell-based; conditions: 48 hours, abacavir 10-100 μM, zidovudine 10 or 100 μM
Procedure: Abacavir was added to an ATL cell line, ED40515 (−), at a concentration of 0 μM (DMSO was added instead of abacavir), 10 μM, 25 μM, 50 μM, 75 μM or 100 μM. After the 48 hours culture, the cells were fixed by Carnoy and stained with Giemsa to prepare chromosome specimens in accordance with conventional methods. Similarly, zidovudine was added to ED40515 (−) at a concentration of 10 μM or 100 μM, and abacavir was added to a non-ATL cell line, Jurkat, at a concentration of 100 μM, and chromosome specimens were prepared. Chromosome images (100 or more images per group) were observed by an optical microscope. The cells were determined as being positive for double-strand break (DSB) when at least one chromosome break was found.

ATL cells = conditions: in vitro; Non Patent Literature 4; cited from earlier work
[2] = tested on: HTLV-1-infected cell line, MT2; experiment: Combination of abacavir and topoisomerase inhibitor, cellular proliferation (MTS), MT2; type: cell-based; conditions: 48 hours, abacavir 10 or 25 μM plus CPT-11 200-400 pM, VP16 100-500 nM or ADR 10-50 nM
Procedure: An HTLV-1-infected cell line, MT2 cell, was used. Abacavir was added at a concentration of 0 μM (DMSO was added instead of abacavir), 10 μM, or 25 μM, and to each of the samples, CPT-11 (generic name: irinotecan) was further added at a concentration of 0 pM, 200 pM, 300 pM, or 400 pM. The cells were cultured for 48 hours. Separately, abacavir was added to MT2 cells at the concentrations as described above, and VP16 (generic name: etoposide) was further added to each of the samples at a concentration of 0 nM, 100 nM, 250 nM, or 500 nM, followed by 48 hours culture. Separately, abacavir was added to MT2 cells at the concentrations as described above, and ADR (generic name: doxorubicin) was further added at a concentration of 0 nM, 10 nM, 25 nM, or 50 nM, followed by 48 hours culture. MTS assay was performed using a reagent for cellular proliferation test, Aqueous One Solution Cell Proliferation (trade name, manufactured by Promega), in the same manner as in Example 1.
The graphs (A), (B), and (c) show the results of combinations of abacavir (ABC in the graph) and CPT-11, abacavir and VP16, and abacavir and ADR, respectively. In the graphs, the vertical axis indicates the proliferation rate calculated from the cell number when the cell number at the administration of the agents was regarded as 1.

[3] = tested on: ATL cell line, ED40515 (−); experiment: PARP inhibitor combination, cellular proliferation (MTS), ED40515 (−); type: cell-based; conditions: olaparib 1-1000 μM with abacavir 10, 50 or 100 μM, 48 hours
Procedure: (§1) To an ATL cell line, ED40515 (−), or a non-ATL cell line, Jurkat, abacavir was added at a concentration of 0 μM (DMSO, was added instead of abacavir), 10 μM, 50 μM or 100 μM, and further a PARP inhibitor, olaparib, was added at a concentration of 0 μM (DMSO was added instead of olaparib), 1 μM, 10 μM, 100 μM or 1000 μM. The cells were cultured for 48 hours. MTS assay was performed using a reagent for cellular proliferation test, Aqueous One Solution Cell Proliferation (trade name, manufactured by Promega), in the same manner as in Example 1. The cellular proliferation was represented by a ratio relative to that of the control (solvent control) on Day 0 that was regarded as 1.

[4] = tested on: non-ATL cell line, Jurkat; experiment: PARP inhibitor combination, cellular proliferation (MTS), Jurkat; type: cell-based, human; conditions: olaparib 1-1000 μM, 48 hours
Procedure: as §1

## Cc1cn([C@H]2C[C@H](N=[N+]=[N-])[C@@H](CO)O2)c(=O)[nH]c1=O [zidovudine]
[1]
  ratio of double-strand break-positive cells: did not induce double-strand break
ATL cells
  anti-cancer effect against ATL cells: no anti-cancer effect

## COc1cccc2c1C(=O)c1c(O)c3c(c(O)c1C2=O)C[C@@](O)(C(=O)CO)C[C@@H]3O[C@H]1C[C@H](N)[C@H](O)[C@H](C)O1 [ADR, doxorubicin]
[2]
  cellular proliferation (proliferation rate) in combination with abacavir: significantly suppressed cellular proliferation

## CCc1c2c(nc3ccc(OC(=O)N4CCC(N5CCCCC5)CC4)cc13)-c1cc3c(c(=O)n1C2)COC(=O)[C@]3(O)CC [CPT-11, irinotecan]
[2]
  cellular proliferation (proliferation rate) in combination with abacavir: significantly suppressed cellular proliferation

## COc1cc([C@@H]2c3cc4c(cc3[C@@H](O[C@@H]3O[C@@H]5CO[C@@H](C)O[C@H]5[C@H](O)[C@H]3O)[C@H]3COC(=O)[C@H]23)OCO4)cc(OC)c1O [VP16, etoposide]
[2]
  cellular proliferation (proliferation rate) in combination with abacavir: significantly suppressed cellular proliferation

## O=C(c1cc(Cc2n[nH]c(=O)c3ccccc23)ccc1F)N1CCN(C(=O)C2CC2)CC1 [olaparib]
[3]
  effect of PARP inhibitor on suppression of cellular proliferation by abacavir: enhanced the suppressive effect of abacavir
[4]
  cellular proliferation: did not affect cellular proliferation
